Data on three compounds can be found in US7598092B2, “Methods, devices, systems and computer program products for stochastic, competitive, force-based analyte detection” (priority 2006, dated 2009).

Where two headings read alike, the source gives them in different places.

The target in one assay is Avidin (Gallus gallus, UniProt P02701). Particulars: cited from earlier work.
Another assay has as its target streptavidin (Streptomyces avidinii, UniProt P22629). Particulars: cited from earlier work.
Another assay has as its target Murine galectin 3 (Mus musculus, UniProt P16110). As to conditions: Gaussian fit of 10 pN bins.
The target in a further assay is galectin 3 (Mus musculus, UniProt P16110). As to the kind of experiment: isothermal titration calorimetry of soluble ligand binding to galectin 3. The arrangement: species or system Murine. (In ITC the heat of successive injections is recorded.)
Sequence of galectin 3 (P16110 whole entry): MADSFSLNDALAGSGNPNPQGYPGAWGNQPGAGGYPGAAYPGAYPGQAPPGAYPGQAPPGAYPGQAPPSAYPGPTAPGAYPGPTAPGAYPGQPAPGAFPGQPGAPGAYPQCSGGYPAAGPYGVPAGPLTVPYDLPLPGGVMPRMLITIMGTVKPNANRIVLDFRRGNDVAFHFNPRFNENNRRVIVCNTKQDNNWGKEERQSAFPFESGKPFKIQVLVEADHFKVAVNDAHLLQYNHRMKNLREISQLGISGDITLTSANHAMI

Sequence of Murine galectin 3 (P16110 whole entry): as above
Sequence of streptavidin (P22629 25-183): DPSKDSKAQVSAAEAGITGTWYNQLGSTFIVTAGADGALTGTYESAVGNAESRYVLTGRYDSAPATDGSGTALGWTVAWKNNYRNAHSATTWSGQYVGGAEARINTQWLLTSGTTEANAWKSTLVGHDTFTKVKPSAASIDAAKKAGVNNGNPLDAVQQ
Sequence of Avidin (P02701 25-152): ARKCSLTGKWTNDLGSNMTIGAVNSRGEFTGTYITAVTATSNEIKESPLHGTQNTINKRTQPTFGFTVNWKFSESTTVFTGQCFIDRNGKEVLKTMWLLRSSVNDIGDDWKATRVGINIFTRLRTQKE

Turning to `O=C(O)CCCC[C@@H]1SC[C@@H]2NC(=O)N[C@@H]21` [biotin, Biotin], the Ka is 10^13-10^15 M^−1 at Avidin and ~10^14 M^−1 at streptavidin.
Take `OC[C@H]1O[C@@H](O[C@H]2[C@H](O)[C@@H](O)C(O)O[C@@H]2CO)[C@H](O)[C@@H](O)[C@H]1O` (some centres unmarked) [lactose]: the average rupture force at Murine galectin 3 (Fe^3+ surface immobilization of galectin 3) is 71 pN; on Murine galectin 3 (Ni^2+ surface immobilization of galectin 3), 72 pN.
As to `CO[C@@H]1O[C@H](CO)[C@@H](O[C@@H]2O[C@H](CO)[C@H](O)[C@H](O)[C@H]2O)[C@H](O)[C@H]1O` [β-methyl lactoside], the “association constant, the affinity measured by isothermal titration calorimetry” value on galectin 3 is listed as 6400±100.
